In assay [1] the test system is A2058 human melanoma cells. Briefly: Cell migration test (LPA-induced, Chemo-Tx). The format is cell-based. The settings on record: LPA 100 nM, 3 hours, read-out: IC50: concentration of the test compound which inhibits the cell migration activity of LPA by 50%. The procedure: The cell migration test was carried out using Chemo-Tx (registered trademark) (116-8, Neuro Probe). A2058 human melanoma cells (obtained from European Collection of Cell Culture) were cultured in a serum-free EMEM medium for 24 hours, and then re-suspended in a 0.1% BSA-containing DMEM medium to obtain a cell suspension. The test compound dissolved in DMSO in various concentration was each added to the cell suspension, and the suspension was cultured at 37° C. for 15 minutes (the final DMSO concentration of 0.5%). LPA dissolved in a 0.1% BSA-containing DMEM medium (the final concentration of 100 nM) was added to Chemo-Tx 96 well plate, and a Chemo-Tx filter which had been coated with 0.001% Fibronectin on the both surfaces was put on the plate. The suspension of cultured cells (25,000 cells) was added onto the upper surface of the filter and further cultured at 37° C. for 3 hours, and the cells on the upper surface of the filter were removed. After the filter was removed and dried, the cells which had migrated to the lower surface of the filter were stained using Diff-Quik stain (16920, Sysmex). The absorbance of the filter (570 nm) was measured and the concentration of the test compound which inhibits the cell migration activity of LPA by 50%, (1050) was determined by non-linear regression analysis using EXSAS (version 7.6.0, Arm Systex).

Assay [2] deals with LPA-induced histamine release. Nature of the assay: LPA-induced histamine release test in mouse. The format is in vivo. The following applies: male CD1 mice; oral dose of 10 mg/kg; LPA 300 μg/mouse via tail vein 4 hours after administration; blood 2 minutes after LPA; read-out: efficacy rate (rate of individuals which showed the inhibition rate of 80% or more of plasma histamine). The procedure:
LPA-Induced Histamine Release Test in Mouse
LPA-induced histamine release test in mouse was carried out according to a method by Swaney et al. (The Journal of Pharmacology and Experimental Therapeutics, 336 (2011), pages 693-700). The test compound was suspended in 0.5% methylcellulose solution (133-14255, Wako), and orally administered to male CD1 mice (body weight: 30 to 40 g, supplied by Charles River Laboratories Japan) at a dose of 10 mL/kg. 4 hours after administration, LPA (857130P, Avanti) dissolved in a 0.1% BSA-containing PBS was administered via the tail vein (300 μg/mouse). Immediately, the mouse was anesthetized with isoflurane, and blood was collected via a vein 2 minutes after the administration of LPA. The blood was put into a test tube containing EDTA, and centrifuged at 4° C., 2,000×g, for 10 minutes to obtain the plasma.
The histamine concentration in the plasma was measured by EIA kit (62HTMPEB, Cisbio Bioassays).

SMILES strings stand for the structures. A value given as a limit tells only on which side of the number the result lay.

Turning to `CC(OC(=O)Nc1cc(F)sc1-c1ccc(-c2ccc(C3(C(=O)O)CC3)cc2)cc1)c1ccsc1` (racemic) [I-639, (RS)-1-{4′-[5-Fluoro-3-({[1-(thiophen-3-yl)ethoxy]carbonyl}amino)thiophen-2-yl]-[1,1′-biphenyl]-4-yl}cyclopropanecarboxylic acid], in assay [1], the IC50 was not above 200 nM. Moreover, in assay [2], the responders at 10 mg/kg was not below 50%. `Cc1cscc1C(C)OC(=O)Nc1cc(F)sc1-c1ccc(-c2ccc(C3(C(=O)O)CC3)cc2)cc1` (racemic) [I-649, (RS)-1-{4′-[5-Fluoro-3-({[1-(4-methylthiophen-3-yl)ethoxy]carbonyl}amino)thiophen-2-yl]-[1,1′-biphenyl]-4-yl}cyclopropanecarboxylic acid]: the IC50 in assay [1] is not above 200 nM. The responders at 10 mg/kg in assay [2] was not below 50%. The like results for `CC(OC(=O)Nc1cc(F)sc1-c1ccc(-c2ccc(C3(C(=O)O)CC3)cc2)cc1)c1cscc1Cl` (racemic) [I-657, (RS)-1-{4′-[3-({[1-(4-Chlorothiophen-3-yl)ethoxy]carbonyl}amino)-5-fluorothiophen-2-yl]-[1,1′-biphenyl]-4-yl}cyclopropanecarboxylic acid] were, in that order, not above 200 nM and not below 50%. The like results for `COc1cc(-c2sc(F)cc2NC(=O)OC(C)c2ccsc2)ccc1-c1ccc(C2(C(=O)O)CC2)cc1` (racemic) [I-811, (RS)-1-{4′-[5-Fluoro-3-({[1-(thiophen-3-yl)ethoxy]carbonyl}amino)thiophen-2-yl]-2′-methoxy-[1,1′-biphenyl]-4-yl}cyclopropanecarboxylic acid] were, in that order, not above 200 nM and not below 50%. For `C[C@@H](OC(=O)Nc1cc(Cl)sc1-c1ccc(-c2ccc(C3(C(=O)O)CC3)cc2)cc1)c1ccc(F)cc1F` [I-64, (R)-1-{4′-[5-Chloro-3-({[1-(2,4-difluorophenyl)ethoxy]carbonyl}amino)thiophen-2-yl]-[1,1′-biphenyl]-4-yl}cyclopropanecarboxylic acid], the IC50 in assay [1] was not above 200 nM. Besides, the responders at 10 mg/kg in assay [2] was not below 50%. For `C[C@@H](OC(=O)Nc1cc(Cl)sc1-c1ccc(-c2ccc(C3(C(=O)O)CC3)cc2)cc1)c1cc(F)ccc1F` [I-68, (R)-1-{4′-[5-Chloro-3-({[1-(2,5-difluorophenyl)ethoxy]carbonyl}amino)thiophen-2-yl]-[1,1′-biphenyl]-4-yl}cyclopropanecarboxylic acid], the IC50 in assay [1] was not above 200 nM. Also, the responders at 10 mg/kg in assay [2] was not below 50%. On to `Cc1ccccc1[C@@H](C)OC(=O)Nc1cc(F)sc1-c1ccc(-c2ccc(C3(C(=O)O)CC3)cc2)cc1` [I-136, (R)-1-{4′-[5-Fluoro-3-({[1-(o-tolyl)ethoxy]carbonyl}amino)thiophen-2-yl]-[1,1′-biphenyl]-4-yl}cyclopropanecarboxylic acid], for which the IC50 in assay [1] was not above 200 nM. Further, in assay [2], the responders at 10 mg/kg is not below 50%.

With `C[C@@H](OC(=O)Nc1cc(Cl)sc1-c1ccc(-c2ccc(C3(C(=O)O)CC3)cc2)nc1)c1ccccc1` [I-196, (R)-1-{4-[5(5-Chloro-3-{[(1-phenylethoxy)carbonyl]amino}thiophen-2-yl)pyridine-2-yl]phenyl}cyclopropanecarboxylic acid], in assay [1], the IC50 was not above 200 nM. Besides, the responders at 10 mg/kg in assay [2] is not below 50%.

For `COc1cc(-c2sc(Cl)cc2NC(=O)O[C@H](C)c2ccccc2)ccc1-c1ccc(C2(C(=O)O)CC2)cc1` [I-350, (R)-1-[4′-(5-Chloro-3-{[(1-phenylethoxy)carbonyl]amino}thiophen-2-yl)-2′-methoxy-[1,1′-biphenyl]-4-yl]cyclopropanecarboxylic acid], in assay [1], the IC50 is not above 200 nM. In addition, the responders at 10 mg/kg in assay [2] is not below 50%.

In the case of `COc1cc(-c2sc(Cl)cc2NC(=O)O[C@H](C)c2ccccc2F)ccc1-c1ccc(C2(C(=O)O)CC2)cc1` [I-354, (R)-1-{4′-[5-Chloro-3-({[1-(2-fluorophenyl)ethoxy]carbonyl}amino)thiophen-2-yl]-2′-methoxy-[1,1′-biphenyl]-4-yl}cyclopropanecarboxylic acid], the IC50 in assay [1] was not above 200 nM. Moreover, in assay [2], the responders at 10 mg/kg is not below 50%. Take `COc1cc(-c2sc(Cl)cc2NC(=O)O[C@H](C)c2cccc(F)c2)ccc1-c1ccc(C2(C(=O)O)CC2)cc1` [I-358, (R)-1-{4′-[5-Chloro-3-({[1-(3-fluorophenyl)ethoxy]carbonyl}amino)thiophen-2-yl]-2′-methoxy-[1,1′-biphenyl]-4-yl}cyclopropanecarboxylic acid]: the IC50 in assay [1] was not above 200 nM. For the same compound, in assay [2], the responders at 10 mg/kg is not below 50%. With `COc1cc(-c2sc(Cl)cc2NC(=O)O[C@H](C)c2ccc(F)cc2)ccc1-c1ccc(C2(C(=O)O)CC2)cc1` [I-362, (R)-1-{4′-[5-Chloro-3-({[1-(4-fluorophenyl)ethoxy]carbonyl}amino)thiophen-2-yl]-2′-methoxy-[1,1′-biphenyl]-4-yl}cyclopropanecarboxylic acid], the IC50 in assay [1] is not above 200 nM. In assay [2], the responders at 10 mg/kg is not below 50%. With `COc1cc(-c2sc(Cl)cc2NC(=O)O[C@H](C)c2ccccc2Cl)ccc1-c1ccc(C2(C(=O)O)CC2)cc1` [I-366, (R)-1-{4′-[5-Chloro-3-({[1-(2-chlorophenyl)ethoxy]carbonyl}amino)thiophen-2-yl]-2′-methoxy-[1,1′-biphenyl]-4-yl}cyclopropanecarboxylic acid], the IC50 in assay [1] is not above 200 nM. For the same compound, in assay [2], the responders at 10 mg/kg was not below 50%. As to `COc1cc(-c2sc(Cl)cc2NC(=O)O[C@H](C)c2ccc(Cl)cc2)ccc1-c1ccc(C2(C(=O)O)CC2)cc1` [I-370, (R)-1-{4′-[5-Chloro-3-({[1-(4-chlorophenyl)ethoxy]carbonyl}amino)thiophen-2-yl]-2′-methoxy-[1,1′-biphenyl]-4-yl}cyclopropanecarboxylic acid], in assay [1], the IC50 was not above 200 nM. Further, the responders at 10 mg/kg in assay [2] is not below 50%. Taken in the same sequence, the figures for `COc1cc(-c2sc(Cl)cc2NC(=O)O[C@H](C)c2ccccc2C)ccc1-c1ccc(C2(C(=O)O)CC2)cc1` [I-374, (R)-1-{4′-[5-Chloro-3-({[1-(o-tolyl)ethoxy]carbonyl}amino)thiophen-2-yl]-2′-methoxy-[1,1′-biphenyl]-4-yl}cyclopropanecarboxylic acid] were not above 200 nM and not below 50%. The like results for `COc1cc(-c2sc(Cl)cc2NC(=O)O[C@H](C)c2ccc(F)cc2F)ccc1-c1ccc(C2(C(=O)O)CC2)cc1` [I-378, (R)-1-{4′-[5-Chloro-3-({[1-(2,4-difluorophenyl)ethoxy]carbonyl}amino)thiophen-2-yl]-2′-methoxy-[1,1′-biphenyl]-4-yl}cyclopropanecarboxylic acid] were, in that order, not above 200 nM and not below 50%. The like results for `COc1cc(-c2sc(Cl)cc2NC(=O)O[C@H](C)c2cc(F)ccc2F)ccc1-c1ccc(C2(C(=O)O)CC2)cc1` [I-388, (R)-1-{4′-[5-Chloro-3-({[1-(2,5-difluorophenyl)ethoxy]carbonyl}amino)thiophen-2-yl]-2′-methoxy-[1,1′-biphenyl]-4-yl}cyclopropanecarboxylic acid] were, in that order, not above 200 nM and not below 50%. As for `COc1cc(-c2sc(F)cc2NC(=O)O[C@H](C)c2ccccc2)ccc1-c1ccc(C2(C(=O)O)CC2)cc1` [I-420], the IC50 in assay [1] is not above 200 nM. Also, the responders at 10 mg/kg in assay [2] was not below 50%.

Consider `COc1cc(-c2sc(F)cc2NC(=O)O[C@H](C)c2ccccc2F)ccc1-c1ccc(C2(C(=O)O)CC2)cc1` [I-424, (R)-1-{4′-[5-Fluoro-3-({[1-(2-fluorophenyl)ethoxy]carbonyl}amino)thiophen-2-yl]-2′-methoxy-[1,1′-biphenyl]-4-yl}cyclopropanecarboxylic acid], for which the IC50 in assay [1] is not above 200 nM. The responders at 10 mg/kg in assay [2] is not below 50%.

On to `COc1cc(-c2sc(Cl)cc2NC(=O)O[C@H](C)c2cccs2)ccc1-c1ccc(C2(C(=O)O)CC2)cc1` [I-808, (R)-1-{4′-[5-Chloro-3-({[1-(thiophen-2-yl)ethoxy]carbonyl}amino)thiophen-2-yl]-2′-methoxy-[1,1′-biphenyl]-4-yl}cyclopropanecarboxylic acid], for which the IC50 in assay [1] is not above 200 nM. On the same count and under the same terms, for `COc1cc(-c2sc(F)cc2NC(=O)O[C@H](C)c2cccs2)ccc1-c1ccc(C2(C(=O)O)CC2)cc1` [I-840, (R)-1-{4′-[5-Fluoro-3-({[1-(thiophen-2-yl)ethoxy]carbonyl}amino)thiophen-2-yl]-2′-methoxy-[1,1′-biphenyl]-4-yl}cyclopropanecarboxylic acid] the value was not above 200 nM.

The values above are taken from patent US10597375B2, “Halogen-substituted heterocyclic compound” (UBE INDUSTRIES, LTD., priority 2012, dated 2020).
